≈ marks a conversion by molar mass, not a printed value.
Experiments:
Format in all cases: cell-based
[1] = tested on: Pasteurella multocida PM 10775 (080130003051, BRD field isolate); experiment: MIC, broth-microdilution (CLSI VET01-A4), strain PM 10775; settings: Pasteurella multocida strain PM 10775, broth-microdilution; unit assumed
Outline: (§1)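 The compound was titrated in twofold steps in microdilution trays. Absence of turbidity, checked without instruments, marked the MIC at the lowest such concentration.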

[2] = tested on: Mannheimia haemolytica MH 6374 (ATCC 33396, reference strain); experiment: MIC, broth-microdilution (CLSI VET01-A4), strain MH 6374; settings: Mannheimia haemolytica strain MH 6374, broth-microdilution; unit assumed
Outline: as §1

[3] = tested on: Mannheimia haemolytica MH 6357 (M7/2, reference strain, cattle infection strain); experiment: MIC, broth-microdilution (CLSI VET01-A4), strain MH 6357; settings: Mannheimia haemolytica strain MH 6357, broth-microdilution; unit assumed
Outline: as §1

[4] = tested on: Mannheimia haemolytica MH 13093 (XB0472-6014.1, BRD field isolate); experiment: MIC, broth-microdilution (CLSI VET01-A4), strain MH 13093; settings: Mannheimia haemolytica strain MH 13093, broth-microdilution; unit assumed
Outline: as §1

[5] = tested on: Pasteurella multocida PM 12080 (IV102277-0093, BRD field isolate); experiment: MIC, broth-microdilution (CLSI VET01-A4), strain PM 12080; settings: Pasteurella multocida strain PM 12080, broth-microdilution; unit assumed
Outline: as §1

[6] = tested on: Mannheimia haemolytica MH 13065 (XB0446-6003.9, BRD field isolate); experiment: MIC, broth-microdilution (CLSI VET01-A4), strain MH 13065; settings: Mannheimia haemolytica strain MH 13065, broth-microdilution; unit assumed
Outline: as §1

[7] = tested on: Pasteurella multocida PM 6267 (P 2225 (L386), reference strain, mouse infection strain); experiment: MIC, broth-microdilution (CLSI VET01-A4), strain PM 6267; settings: Pasteurella multocida strain PM 6267, broth-microdilution; unit assumed
Outline: as §1

[8] = tested on: Mannheimia haemolytica MH 12587 (1071, BRD field isolate, macrolide-resistance: erm+, E+); experiment: MIC, broth-microdilution (CLSI VET01-A4), strain MH 12587; settings: Mannheimia haemolytica strain MH 12587, broth-microdilution; unit assumed
Outline: as §1

[9] = tested on: Pasteurella multocida PM 6391 (ATCC 43137, reference strain); experiment: MIC, broth-microdilution (CLSI VET01-A4), strain PM 6391; settings: Pasteurella multocida strain PM 6391, broth-microdilution; unit assumed
Procedure: For example, representative compounds were tested against ***, Mannheimia haemolytica and Pasteurella multocida, using the conventional broth-dilution assay.
The Minimum inhibitory concentrations (MIC) of compounds according to the invention for a number of veterinary bacterial pathogens were determined by the broth-microdilution method according to CLSI document VET01-A4.
Microdilution trays containing a doubling dilution series of the test compound were used for the tests. The MIC results were interpreted according to the CLSI documents VET01-S3. The lowest concentration of compound at which no visible growth (i.e. no turbidity) detected by the unaided eye was recorded as the MIC.

[10] = tested on: Mannheimia haemolytica MH 10720 (154, BRD field isolate); experiment: MIC, broth-microdilution (CLSI VET01-A4), strain MH 10720; settings: Mannheimia haemolytica strain MH 10720, broth-microdilution; unit assumed
Outline: as §1

MIC PM 10775 [1] [µg/mL]	MIC PM 12080 [5] [µg/mL]	MIC PM 6267 [7] [µg/mL]	MIC PM 6391 [9] [µg/mL]	SMILES	MIC MH 6374 [2] [µg/mL]	MIC MH 6357 [3] [µg/mL]	MIC MH 13093 [4] [µg/mL]	MIC MH 13065 [6] [µg/mL]	MIC MH 12587 [8] [µg/mL]	MIC MH 10720 [10] [µg/mL]
≤ 0.1	≤ 0.1	≤ 0.1	0.4 (≈ 0.799 µM)	CC(C)(C(NC(=O)c1ccc(C#Cc2ccc(CNCc3ccccc3)cc2)cc1)C(=O)NO)[N+](=O)[O-] (centres unmarked) [Compound 276]	0.8 (≈ 1.6 µM)	0.8 (≈ 1.6 µM)	0.8 (≈ 1.6 µM)	0.4 (≈ 0.799 µM)	0.8 (≈ 1.6 µM)	≤ 0.1
≤ 0.1	0.4 (≈ 0.85 µM)	0.2 (≈ 0.425 µM)	1.6 (≈ 3.4 µM)	CC[C@H](C)[C@H](NC(=O)c1ccc(C#Cc2ccc(CNCc3cccnc3)cc2)cc1)C(=O)NO [Compound 179]	0.8 (≈ 1.7 µM)	0.4 (≈ 0.85 µM)	0.8 (≈ 1.7 µM)	0.8 (≈ 1.7 µM)	1.6 (≈ 3.4 µM)	≤ 0.1
≤ 0.1	0.2 (≈ 0.443 µM)	≤ 0.1	≤ 0.1	CC(C)(O)[C@H](NC(=O)c1ccc(C#Cc2ccc(CN3CCOCC3)cc2)cc1)C(=O)NO [Compound 222]	1.6 (≈ 3.54 µM)	0.8 (≈ 1.77 µM)	1.6 (≈ 3.54 µM)	1.6 (≈ 3.54 µM)	1.6 (≈ 3.54 µM)	0.2 (≈ 0.443 µM)
≤ 0.1	≤ 0.1	6.3 (≈ 17.1 µM)	25 (≈ 68 µM)	CNCc1ccc(C#Cc2ccc(C(=O)N[C@@H](CO)C(=O)NO)cc2)cc1 [Compound 150]	25 (≈ 68 µM)	6.3 (≈ 17.1 µM)	25 (≈ 68 µM)	12.5 (≈ 34 µM)	25 (≈ 68 µM)	3.1 (≈ 8.44 µM)
≤ 0.1	≤ 0.1	0.4 (≈ 0.856 µM)	≤ 0.1	CC(C)(O)[C@H](NC(=O)c1ccc(C#Cc2ccc(CNCc3ccco3)s2)cc1)C(=O)NO [Compound 298]	0.2 (≈ 0.428 µM)	≤ 0.1	0.4 (≈ 0.856 µM)	0.2 (≈ 0.428 µM)	0.4 (≈ 0.856 µM)	≤ 0.1
≤ 0.1	0.2 (≈ 0.445 µM)	≤ 0.1	0.4 (≈ 0.89 µM)	O=C(N[C@@H](CO)C(=O)NO)c1ccc(C#Cc2ccc(CNCc3cccs3)cc2)cc1 [Compound 160]	0.8 (≈ 1.78 µM)	0.8 (≈ 1.78 µM)	3.1 (≈ 6.9 µM)	1.6 (≈ 3.56 µM)	3.1 (≈ 6.9 µM)	0.4 (≈ 0.89 µM)
3.1 (≈ 7.39 µM)	1.6 (≈ 3.81 µM)	25 (≈ 59.6 µM)	0.4 (≈ 0.954 µM)	CC(=O)C(NC(=O)c1ccc(C#Cc2ccc(CNC3CCC3)cc2)cc1)C(=O)NO (centres unmarked) [Compound 404]	12.5 (≈ 29.8 µM)	12.5 (≈ 29.8 µM)	50 (≈ 119 µM)	25 (≈ 59.6 µM)	3.1 (≈ 7.39 µM)	6.3 (≈ 15 µM)
≤ 0.1	≤ 0.1	≤ 0.1	0.2 (≈ 0.365 µM)	Cc1ccc(CNCc2ccc(C#Cc3ccc(C(=O)N[C@H](C(=O)NO)C(C)(C)S(C)(=O)=O)cc3)cc2)cc1 [Compound 272]	0.4 (≈ 0.73 µM)	0.8 (≈ 1.46 µM)	0.8 (≈ 1.46 µM)	0.2 (≈ 0.365 µM)	1.6 (≈ 2.92 µM)	≤ 0.1
≤ 0.1	0.4 (≈ 0.829 µM)	3.1 (≈ 6.42 µM)	0.8 (≈ 1.66 µM)	CSC(C)(C)C(NC(=O)c1ccc(C#Cc2ccc(CN3CCOCC3)nc2)cc1)C(=O)NO (centres unmarked) [Compound 338]	6.3 (≈ 13.1 µM)	3.1 (≈ 6.42 µM)	6.3 (≈ 13.1 µM)	3.1 (≈ 6.42 µM)	6.3 (≈ 13.1 µM)	0.8 (≈ 1.66 µM)
≤ 0.1	0.4 (≈ 0.812 µM)	0.8 (≈ 1.62 µM)	0.8 (≈ 1.62 µM)	CSC(C)(C)[C@H](NC(=O)c1ccc(C#Cc2ccc(CNCc3ccco3)nc2)cc1)C(=O)NO [Compound 344]	0.8 (≈ 1.62 µM)	0.4 (≈ 0.812 µM)	1.6 (≈ 3.25 µM)	0.8 (≈ 1.62 µM)	1.6 (≈ 3.25 µM)	≤ 0.1
≤ 0.1	0.4 (≈ 0.923 µM)	0.2 (≈ 0.461 µM)	0.8 (≈ 1.85 µM)	CC(C)[C@H](NC(=O)c1ccc(C#Cc2ccc(CN3CCCCC3)cc2)cc1)C(=O)NO [Compound 166]	6.3 (≈ 14.5 µM)	3.1 (≈ 7.15 µM)	6.3 (≈ 14.5 µM)	6.3 (≈ 14.5 µM)	6.3 (≈ 14.5 µM)	0.8 (≈ 1.85 µM)
1.6 (≈ 3.3 µM)	0.8 (≈ 1.65 µM)	6.3 (≈ 13 µM)	0.2 (≈ 0.412 µM)	COc1ccc(CNCc2ccc(C#Cc3ccc(C(=O)N[C@@H](C(C)=O)C(=O)NO)cc3)cc2)cc1 [Compound 401]	1.6 (≈ 3.3 µM)	1.6 (≈ 3.3 µM)	1.6 (≈ 3.3 µM)	1.6 (≈ 3.3 µM)	0.4 (≈ 0.824 µM)	3.1 (≈ 6.38 µM)
≤ 0.1	≤ 0.1	0.8 (≈ 1.67 µM)	≤ 0.1	CC(C)(O)[C@H](NC(=O)c1ccc(C#Cc2ccc(CNCc3cccnc3)s2)cc1)C(=O)NO [Compound 296]	0.2 (≈ 0.418 µM)	≤ 0.1	0.4 (≈ 0.836 µM)	≤ 0.1	0.4 (≈ 0.836 µM)	≤ 0.1
≤ 0.1	≤ 0.1	0.8 (≈ 1.68 µM)	0.2 (≈ 0.419 µM)	CC(C)(O)[C@H](NC(=O)c1ccc(C#Cc2ccc(CNCc3ccccc3)s2)cc1)C(=O)NO [Compound 294]	0.2 (≈ 0.419 µM)	≤ 0.1	0.4 (≈ 0.838 µM)	≤ 0.1	0.4 (≈ 0.838 µM)	≤ 0.1
≤ 0.1	≤ 0.1	≤ 0.1	0.2 (≈ 0.407 µM)	CSC(C)(C)[C@H](NC(=O)c1ccc(C#Cc2ccc(CNCc3ccco3)cc2)cc1)C(=O)NO [Compound 250]	0.8 (≈ 1.63 µM)	0.4 (≈ 0.814 µM)	0.4 (≈ 0.814 µM)	0.4 (≈ 0.814 µM)	0.8 (≈ 1.63 µM)	≤ 0.1
≤ 0.1	0.2 (≈ 0.461 µM)	≤ 0.1	0.4 (≈ 0.923 µM)	CC[C@H](C)[C@H](NC(=O)c1ccc(C#Cc2ccc(CNC3CCC3)cc2)cc1)C(=O)NO [Compound 197]	3.1 (≈ 7.15 µM)	1.6 (≈ 3.69 µM)	3.1 (≈ 7.15 µM)	1.6 (≈ 3.69 µM)	6.3 (≈ 14.5 µM)	0.4 (≈ 0.923 µM)
≤ 0.1	0.2 (≈ 0.392 µM)	0.4 (≈ 0.785 µM)	0.4 (≈ 0.785 µM)	CSC(C)(C)[C@H](NC(=O)c1ccc(C#Cc2ccc(CNCc3ncccn3)s2)cc1)C(=O)NO [Compound 366]	0.8 (≈ 1.57 µM)	0.8 (≈ 1.57 µM)	1.6 (≈ 3.14 µM)	0.8 (≈ 1.57 µM)	1.6 (≈ 3.14 µM)	0.2 (≈ 0.392 µM)
≤ 0.1	≤ 0.1	0.4 (≈ 0.748 µM)	0.4 (≈ 0.748 µM)	CC(C)([C@H](NC(=O)c1ccc(C#Cc2ccc(CNCc3ccccc3)nc2)cc1)C(=O)NO)S(C)(=O)=O [Compound 351]	0.4 (≈ 0.748 µM)	0.4 (≈ 0.748 µM)	0.8 (≈ 1.5 µM)	1.6 (≈ 2.99 µM)	1.6 (≈ 2.99 µM)	≤ 0.1
≤ 0.1	0.4 (≈ 0.923 µM)	0.2 (≈ 0.461 µM)	0.8 (≈ 1.85 µM)	O=C(N[C@@H](CO)C(=O)NO)c1ccc(C#Cc2ccc(CNCc3ccco3)cc2)cc1 [Compound 159]	1.6 (≈ 3.69 µM)	1.6 (≈ 3.69 µM)	3.1 (≈ 7.15 µM)	3.1 (≈ 7.15 µM)	3.1 (≈ 7.15 µM)	0.4 (≈ 0.923 µM)
≤ 0.1	1.6 (≈ 4.07 µM)	0.4 (≈ 1.02 µM)	1.6 (≈ 4.07 µM)	CC[C@H](C)[C@H](NC(=O)c1ccc(C#Cc2ccc(CNC)cc2)cc1)C(=O)NO [Compound 194]	25 (≈ 63.5 µM)	6.3 (≈ 16 µM)	12.5 (≈ 31.8 µM)	6.3 (≈ 16 µM)	25 (≈ 63.5 µM)	

SMILES	MIC PM 10775 [1] [µg/mL]	MIC PM 12080 [5] [µg/mL]	MIC PM 6267 [7] [µg/mL]	MIC PM 6391 [9] [µg/mL]	MIC MH 6374 [2] [µg/mL]	MIC MH 6357 [3] [µg/mL]	MIC MH 13093 [4] [µg/mL]	MIC MH 13065 [6] [µg/mL]	MIC MH 12587 [8] [µg/mL]	MIC MH 10720 [10] [µg/mL]
CC(C)([C@H](NC(=O)c1ccc(C#Cc2ccc(CNCc3nccs3)cc2)cc1)C(=O)NO)S(C)(=O)=O [C.274]	≤ 0.1	≤ 0.1	≤ 0.1	≤ 0.1	0.2 (≈ 0.37 µM)	0.2 (≈ 0.37 µM)	0.2 (≈ 0.37 µM)	0.2 (≈ 0.37 µM)	0.4 (≈ 0.74 µM)	≤ 0.1

Reference: patent US11034650B2, “Compounds useful for treating a Mannheimia haemolytica or Histophilus somni infection” (Intervet Inc., priority 2016, dated 2021)
